The values that follow come from article PMC12308784, “Organometallic Half-Sandwich Complexes of 1,10-Phenanthroline Derivatives with Improved Solubility, Albumin-Binding, and Nanoformulation Potential Targeting Drug Resistance in Cancer” (Inorganic Chemistry, 2025).

Like-named read-outs stand apart in the source and are kept apart here. Some results are limits rather than exact numbers.

One assay deals with MCF-7. Kind of assay: PrestoBlue cytotoxicity assay. To be noted: for pIC50 (mean): Table S5. Format: cell-based. How it is done:
(§1) MDA-MB-231 breast adenocarcinoma and MCF-7 and T-47D invasive breast carcinomas were purchased from the Developmental Therapeutic Program of the National Cancer Institute (NIH, USA), and they were cultured in RPMI medium (Thermo Fisher). MES–SA and MES–SA/Dx5 uterine sarcoma cell lines were purchased from American Type Culture Collection and were kept in DMEM (Thermo Fisher). MES–SA/B1 was created by the transfection of the human MDR1 gene in MES–SA, and MES–SA mCherry, MES–SA/B1 mOrange, and MES–SA/Dx5 eGFP were engineered to stably express the respective fluorescent proteins, as described previously. Culture media were supplemented with 10% fetal bovine serum, 2 mM L-glutamine, 100 units/mL penicillin, and 100 μg/mL streptomycin (Thermo Fisher). Cells were kept at 37 °C under 5% CO2 and were negative for mycoplasma infection.
(§2) Cytotoxicity of the nonfluorescent cancer cells (MDA-MB-231, MCF-7, T-47D) were assessed with PrestoBlue cell viability reagent (Thermo Fisher). Briefly, 2500 cells/well were seeded on 384-well plates, and then the next day drugs were added. After 72 h incubation, PrestoBlue was added in a 10% final concentration, and after an hour of additional incubation, plates were measured with a PerkinElmer EnSpire plate reader at 555 nm/585 nm excitation/emission wavelengths. Fluorescent cells (MES-SA mCherry, MES-SA/B1 mOrange, MES-SA/Dx5 eGFP) were admixed before seeding on 384-well plates at 800 cells/well density each, thus altogether 2400 cells/well. Drugs were added the following day, and the intensity of the fluorescent proteins were measured after 144 h incubation at the respective fluorescent channels (excitation/emission: eGFP: 485 nm/510 nm; mCherry: 585 nm/610 nm; mOrange: 545 nm/567 nm). pIC50 values were calculated by a custom program written by Judit Sessler in C#. IC50 values and standard deviation were calculated from average pIC50 values from at least 3 independent measurements. Since the IC50 values were obtained through nonlinear regression fitting of the viability vs. log(concentration) data, the resulting confidence intervals are inherently asymmetric (see pIC50 values and their corresponding SD in Tables S5 and S6).

In the next assay the test system is MDA-MB-231. Kind of assay: PrestoBlue cytotoxicity assay. It is filed as cell-based. As to conditions: for pIC50 (mean): Table S5. The procedure:
as §1, §2

The next assay concerns T47D. Kind of assay: PrestoBlue cytotoxicity assay. Format: cell-based. As to conditions: for pIC50 (mean): Table S5. How it is done: as §1, §2
In assay [1] the target is T1, HSA Sudlow’s site I (IIA subdomain) (Homo sapiens, UniProt P02768).
T1 construct: purchased Sigma-Aldrich A8763
Kind of assay: warfarin (WF) site marker displacement on HSA. It is filed as binding. To be noted: PBS’; t = 25 °C; HSA–WF 1:1, 1.2 μM. How it is done: To further explore the binding affinity and site specificity of the metal complexes, site marker displacement experiments were conducted using WF and DG, which bind to Sudlow’s site I (in IIA subdomain) and to Sudlow’s site II (in IIIA subdomain), respectively. The displacement of these fluorescence probes directly confirms the interactions of the metal complexes with the respective binding sites. The displacement constants of WF (KWF′) by the metal complexes (Figure c,d, Table ) were correlated with the Trp-214 quenching data.
Fluorescence measurements were carried out on a Fluoromax (Horiba Jobin Yvon) spectrofluorometer using a 1 cm × 1 cm quartz cuvette in order to assess the interactions of the complexes with HSA in PBS’ medium at 25 °C. The calculated quenching or displacement conditional constants for the HSA-complex species were obtained using the computer program HypSpec. Calculations always were based on data obtained from at least two independent measurements. Self-absorbance and inner filter effect had to be taken into account, and corrections were made as it was described in our former works. ,
Table S7. Conditions applied for steady -state spectrofluorometric measurements.
cHSA cMARKER ccomplex λEX λEM slit widths
(μM) (μM) (μM) (nm) (nm) EX/EM […]
S.; Deflon, V. M.; Ferreira, A. G.; Cominetti, M. R.; Batista, A. A. Cytotoxicity of Ru(II) Piano-
Stool Complexes with Chloroquine and Chelating Ligands against Breast and Lung Tumor Cells:
Interactions with DNA and BSA. J Inorg Biochem 2015, 153, 150–161.
Van Deun, R.; Van Hecke, K. Antitumor Activity of Organoruthenium Complexes with Chelate

[2] abbreviates: Homo sapiens, MCF7, 72 h, 384-well plate, read-out: IC50.
The mark [3] stands for this setting: Homo sapiens, MCF7, Table S5, read-out: pIC50 (mean) (converted).
Setting [4] is: Homo sapiens, 72 h, 384-well plate, read-out: IC50.
[5] abbreviates: Homo sapiens, Table S5, read-out: pIC50 (mean) (converted).
Where [6] appears, read: 72 h, 384-well plate, read-out: IC50.

T1 sequence (P02768 25-609): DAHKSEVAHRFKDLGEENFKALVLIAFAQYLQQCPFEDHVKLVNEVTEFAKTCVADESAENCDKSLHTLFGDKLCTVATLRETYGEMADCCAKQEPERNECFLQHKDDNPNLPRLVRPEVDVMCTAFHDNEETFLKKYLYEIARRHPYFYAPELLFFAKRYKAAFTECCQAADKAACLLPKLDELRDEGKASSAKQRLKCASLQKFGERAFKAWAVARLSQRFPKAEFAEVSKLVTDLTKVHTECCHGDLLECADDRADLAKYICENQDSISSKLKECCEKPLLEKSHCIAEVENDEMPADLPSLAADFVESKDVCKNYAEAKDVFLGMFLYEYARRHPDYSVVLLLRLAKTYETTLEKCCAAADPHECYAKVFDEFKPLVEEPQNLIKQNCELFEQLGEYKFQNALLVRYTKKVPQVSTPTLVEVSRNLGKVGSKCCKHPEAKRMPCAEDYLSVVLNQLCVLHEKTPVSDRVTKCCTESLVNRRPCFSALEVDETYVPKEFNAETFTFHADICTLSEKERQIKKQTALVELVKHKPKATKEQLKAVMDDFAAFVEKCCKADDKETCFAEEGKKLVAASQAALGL

Take `c1ccc(-c2ccnc3c2ccc2c(-c4ccccc4)ccnc23)cc1` [BP, 4,7-diphenyl-1,10-phenanthroline]: the IC50 in the assay with MCF-7 (setting [2]) is 0.59 µM; in the assay on MCF-7 (setting [3]) it was 0.589 µM; with MDA-MB-231 (setting [4]) it was 0.76 µM; with MDA-MB-231 (setting [5]) it was 0.759 µM; in the assay with T47D (setting [4]) it was 0.63 µM; in the assay on T47D (setting [5]), 0.631 µM.

As for `Clc1ccnc2c1ccc1c(Cl)ccnc12` [DCP, 4,7-dichloro-1,10-phenanthroline], the IC50 in the assay with MCF-7 (setting [2]) was 3.84 µM; in the assay with MCF-7 (setting [3]), 3.8 µM; in the assay with MDA-MB-231 (setting [4]), 5.09 µM; in the assay on MDA-MB-231 (setting [5]) it was 5.13 µM; in the assay with T47D (setting [4]), 4.29 µM; with T47D (setting [5]), 4.27 µM.

Turning to `Cc1c(C)c(C)[c-](C)c1C.Clc1ccnc2c1ccc1c(Cl)ccnc12.[Cl-].[Cl-].[Rh+3]` [RhCp*DCP, [Rh(III)(η^5-C5Me5)(4,7-dichloro-1,10-phenanthroline)Cl]Cl], the “logK WF′ (WF displacement constant)” value in assay [1] was 4.8 ± 0.1. Moreover, the IC50 was found to be 5.92 µM with MCF-7 (setting [6]), 7.56 µM with MDA-MB-231 (setting [6]) and 7.36 µM with T47D (setting [6]). For the same compound, the “pIC50 (mean)” value with MCF-7 amounted to 5.23; in the assay with MDA-MB-231, 5.12; in the assay with T47D, 5.13.

Take `Cc1ccc(C(C)C)cc1.[Cl-].[Cl-].[Ru+2].c1ccc(-c2ccnc3c2ccc2c(-c4ccccc4)ccnc23)cc1` [RuCymBP, [Ru(II)(η^6-p-cymene)(bathophenanthroline)Cl]Cl]: in assay [1], the “logK WF′ (WF displacement constant)” value is recorded as 4.4 ± 0.1. Further, the IC50 turned out to be 1.93 µM with MCF-7 (setting [6]), 1.23 µM in the assay with MDA-MB-231 (setting [6]) and 1.86 µM in the assay with T47D (setting [6]). Also, the “pIC50 (mean)” value in the assay with MCF-7 is given as 5.71; with MDA-MB-231, 5.91; with T47D, 5.73.

As for `Cc1ccc(C(C)C)cc1.Clc1ccnc2c1ccc1c(Cl)ccnc12.[Cl-].[Cl-].[Ru+2]` [RuCymDCP, [Ru(II)(η^6-p-cymene)(4,7-dichloro-1,10-phenanthroline)Cl]Cl], the “logK WF′ (WF displacement constant)” value in assay [1] is recorded as at most 4.3. Moreover, the values for the IC50 in the assay with MCF-7 (setting [6]), in the assay with MDA-MB-231 (setting [6]) and in the assay on T47D (setting [6]) were 76.4 µM, above 100 µM and 75 µM, respectively. Further, the “pIC50 (mean)” value is reported as 4.12 in the assay on MCF-7 and 4.13 with T47D.

For “[Rh(III)(η^5-C5Me5)(bathophenanthroline)Cl]Cl [RhCp*BP]”, the “logK WF′ (WF displacement constant)” value in assay [1] is listed as 5.6 ± 0.1. The IC50 in the assay on MCF-7 (setting [6]) amounted to 14.9 µM; in the assay on MDA-MB-231 (setting [6]) it was 4.68 µM; in the assay on T47D (setting [6]), 5.28 µM. In addition, the “pIC50 (mean)” value with MCF-7 is 4.83; with MDA-MB-231 it was 5.33; in the assay with T47D it was 5.28.
